Earlier results as cited in the CATMoS acute toxicity set (Mansouri et al. 2021).
Several values for one entry are separate records, joined by “and”; a condition that tells them apart may be missing. Equal values may be shown once.

Test: rat acute oral toxicity
Details: in vivo
Description: […]The data set underlying the modeling effort for this project was initially compiled by NICEATM and U.S. EPA’s CCTE. Briefly, LD50 data were collected from rat acute oral systemic toxicity tests, including limit tests, ranges/confidence intervals, and discrete LD50 values. The full data set included 21,200 LD50 entries for 15,688 substances. […] Data were reviewed to ensure that LD50 values with obvious errors in the extracted data such as unit conversion errors (e.g., comma and decimal separator misplacements) were either fixed or removed. After this review, 16,209 LD50 values remained. Many of the chemicals represented had multiple LD50 entries, requiring that a single representative value per Chemical Abstracts Service Registry Number (CASRN) identifier be defined to facilitate modeling efforts. Based on ATWG feedback and to define the representative LD50 as a protective value while accounting for the distribution across multiple LD50s, the median of the lowest quartile was computed using only discrete LD50 values (omitting limit test data and range and confidence interval data). A detailed summary of the data compilation is available online on the NICEATM webpage dedicated to the collaborative modeling project (NTP 2020).
[…][…] For categorical designations, limit test and range/confidence interval LD50 data were integrated wherever possible. As such, the number of chemicals with end point values/calls varies across the modeling end points (Table 3) based on whether chemicals had representative LD50 values and/or other data. If a chemical had both, the representative value was used to determine categorical calls rather than limit test data. Some data were useable only for certain end points and categories depending on the thresholds. For example, ranges that spanned multiple hazard categories were considered only for the binary (very toxic/nontoxic) end points and omitted from rendering a determination for hazard category assignment.
[…]The final data set comprising 11,992 chemicals was split into training and evaluation sets […], respectively. This process was performed semirandomly by ordering chemicals based on the five end points (categorical and continuous LD50 values) and partitioning every fourth record into the evaluation set accordingly. This approach was taken to ensure an equivalent distribution of the LD50 values and the different hazard categories between the training and the evaluation sets without supervised sampling of the chemicals based on structures (Figure 1A). The sources of the chemical structures were also kept equivalent between the two sets, with chemical structures obtained from DSSTox, being the highest quality, representing over 75% of each set (Figure 1B).

SMILES	LD50
CCCCCCCCCCCC[N+](C)(C)Cc1ccc(CC)cc1	700 mg/kg
CCCCCCCCc1ccc(C)cc1O	4000 mg/kg
C[C@H](N)Cc1ccccc1	38 mg/kg
CC(=O)c1ccccc1Cl	1820 mg/kg
COc1cc(Cc2cnc(N)nc2N)cc(OC)c1OC	200 mg/kg
C[C@H](N)[C@H](O)c1ccccc1	1540 mg/kg
CS(=O)(=O)OCCCNCCCOS(C)(=O)=O	108 mg/kg
COc1ccc(/C=C/C(=O)Nc2ccccc2C(=O)O)cc1OC	1100 mg/kg
O=[N+]([O-])c1cc(Cl)c2nc(C(F)(F)F)[nH]c2c1	9.87 mg/kg
Nc1cc2c(S(=O)(=O)O)cccc2c(S(=O)(=O)O)c1N	29000 mg/kg
CCCCCCCC(=O)Oc1c(I)cc(C#N)cc1I	190 mg/kg
O=C(CCCN1CCN(c2ccccc2)CC1)c1ccc(F)cc1	550 mg/kg
CCOC(=O)OC(=O)OCC	850 mg/kg
c1ccc2c(CC3=NCCN3)cccc2c1	1260 mg/kg
CCOP(=S)(OCC)SCS(=O)(=O)CC	1.2 mg/kg
Cc1cccc(C)c1N(Cn1cccn1)C(=O)CCl	1000 mg/kg
Cc1cccc(N2CC(CO)OC2=O)c1 (stereo not drawn)	1220 mg/kg
CCOC(=O)C(NCCNC(C(=O)OCC)c1ccccc1O)c1ccccc1O (stereo not drawn)	800 mg/kg
O=C1CCC(N2C(=O)c3ccccc3C2=O)C(=O)N1 (stereo not drawn)	113 mg/kg
O=C(Nc1ccc(Nc2ccc(NC(=O)c3ccccc3)c3c2C(=O)c2ccccc2C3=O)c2c1C(=O)c1ccccc1C2=O)c1ccccc1	19300 mg/kg
COC(=O)Cc1ccccc1	2550 mg/kg

SMILES	LD50
CC(C)OC(=S)S	1700 mg/kg and 1250 mg/kg
Cc1cccc(N2CCN(CCCCN3C(=O)CNC3=O)CC2)c1	383 mg/kg
COP(=S)(OC)Oc1ccc(S(C)=O)c(C)c1 (stereo not drawn)	125 mg/kg
CNCCc1ccc(OC(=O)C(C)C)c(OC(=O)C(C)C)c1	2930 mg/kg
CC1=CCC2C(C1)C2(C)C (stereo not drawn)	4800 mg/kg
CC(C)(C)c1ccc(C(=O)O)cc1	473 mg/kg
CNCCCN	951 mg/kg
CCOP(=O)(OCC)SCSP(=S)(OCC)OCC	35.1 mg/kg
Cc1ccc(C(C)(C)C)cc1	1560 mg/kg
O=[N+]([O-])c1cc2[nH]c(C(F)(F)F)nc2c(Cl)c1Cl	55 mg/kg
Cc1cccc2ccccc12	1840 mg/kg
CCOC(=O)C(Cl)=NNc1ccccc1	13000 mg/kg
OC(Cn1cncn1)(c1ccc(F)cc1)c1ccccc1F (stereo not drawn)	1140 mg/kg
CCNCC	9900 mg/kg
Cc1nc([N+](=O)[O-])cn1-c1ccc([N+](=O)[O-])cc1	4810 mg/kg
CCCCOCCOC(=O)CCCCC(=O)OCCOCCCC	1100 mg/kg
C/C(=C1\CCOC(=O)S1)N(C=O)Cc1cnc(C)nc1N	7600 mg/kg
CNC(=O)Oc1cc(C)c(C)c(C)c1	178 mg/kg
CCC(C)OCCO (stereo not drawn)	790 mg/kg
CC(C)CCCC(C)(C)O	6800 mg/kg
CC[C@@]1(O)C[C@H](O[C@H]2C[C@H](N(C)C)[C@H](O[C@H]3C[C@H](O)[C@H](O[C@H]4CCC(=O)[C@H](C)O4)[C@H](C)O3)[C@H](C)O2)c2c(cc3c(c2O)C(=O)c2c(O)cccc2C3=O)[C@H]1C(=O)OC	58.6 mg/kg

SMILES	LD50
NCCCCCCC(=O)O	9000 mg/kg
O=C(CS)OCCCCOC(=O)CS	405 mg/kg
CCCN=C(N)C(OCC)c1ccccc1 (stereo not drawn)	530 mg/kg
O=C(O)CCc1nc2ccccc2[nH]1	1700 mg/kg
CCN(CC)P1(=S)OCc2cc([N+](=O)[O-])ccc2O1 (stereo not drawn)	150 mg/kg
CCCCSC(=O)Oc1c(C(C)CC)cc([N+](=O)[O-])cc1[N+](=O)[O-] (stereo not drawn)	147 mg/kg
O=C(O)CCCCCC(=O)O	7000 mg/kg
CCC(CC)(CO)CO	850 mg/kg
CCN(CC)c1cccc(S(=O)(=O)O)c1	7470 mg/kg
NC(=O)OC(CCl)Cc1ccccc1 (stereo not drawn)	490 mg/kg
COc1ccc(N=NN(C)C)cc1	347 mg/kg
CCc1cccc(C)c1N	885 mg/kg
O=C1CCCN1c1cccc2cccnc12	1650 mg/kg
CCCCC(CC)COP(OCC(CC)CCCC)OCC(CC)CCCC (stereo not drawn)	6200 mg/kg
NC(=O)NO	5760 mg/kg
CC1=NN(C(=N)N=C(N)N)C(C)(C)C1	4090 mg/kg
CN(C)N=Nc1cccnc1	160 mg/kg
CC(C)(C(=O)c1cccnc1)c1cccnc1	521 mg/kg
CCCCNc1ccc2c(c1)C(=O)N(CCN(CC)CC)C2=O	580 mg/kg
COc1cc(NC(=O)CC(C)=O)c(OC)cc1Cl	850 mg/kg
CC(Br)CBr (stereo not drawn)	741 mg/kg
